# Measurements as given in patent US20230203043A1, “NOVEL IMIDAZOPYRAZINE DERIVATIVES” (Hoffmann-La Roche Inc., priority 2020, published 2023).
# Counter-ions that a name gives are not always drawn.
# Tested on: Acinetobacter baumannii ATCC17961
# Assay: Antimicrobial susceptibility testing: 90% growth inhibitory concentration (IC90) determination in Iso-Sensitest broth, OD600 growth
# Assay type: cell-based
# Details: Acinetobacter baumannii, ATCC17961, 16 h, strain ATCC 17961, OD600 growth over 16 h, read-out: A. baumannii ATCC 17961 IC90
# Protocol: Antimicrobial Susceptibility Testing:
# 90% Growth Inhibitory Concentration (IC90) Determination
# The in vitro antimicrobial activity of the compounds was determined according to the following procedure:
# The assay used a 10-points Iso-Sensitest broth medium to measure quantitatively the in vitro activity of the compounds against Acinetobacter baumannii ATCC17961 or ATCC17968.
# Stock compounds in DMSO were serially twofold diluted (e.g. range from 50 to 0.097 μM final concentration) in 384 wells microtiter plates and inoculated with 49 μl the bacterial suspension in Iso-Sensitest medium to have a final cell concentration of ˜5×10^(5) CFU/ml in a final volume/well of 50 ul/well. Microtiter plates were incubated at 35±2° C.
# Bacterial cell growth was determined with the measurement of optical density at λ=600 nm each 20 minutes over a time course of 16 h. Growth inhibition was calculated during the logarithmic growth of the bacterial cells with determination of the concentration inhibiting 50% (IC50) and 90% (IC90) of the growth.
# Table 7 provides the 90% growth inhibitory concentrations (IC90) in micromoles per liter of the compounds of present invention obtained against the strain Acinetobacter baumannii ATCC17961 and/or ATCC17968.
row,Molecule,IC90
1,"C#CC(C)n1cc(-c2cnc3c(Nc4ccc(C(=O)N5CCN(C(=O)[C@H](N)C(C)C)CC5)c(CC)c4)nccn23)c(C(F)F)n1 (mixture of isomers) [Example 799, (2R)-2-amino-1-(4-(4-((3-(1-(but-3-yn-2-yl)-3-(difluoromethyl)-1H-pyrazol-4-yl)imidazo [1,2-a]pyrazin-8-yl)amino)-2-ethylbenzoyl)piperazin-1-yl)-3-methylbutan-1-one (mixture of epimers)]",2740 nM
2,"O=C(c1ccc(Nc2nccn3c(-c4c[nH]nc4C(F)(F)F)cnc23)cc1Cl)N1CCN(C(=O)[C@H]2CNC[C@H](O)C2)CC1 (racemic) [Example 353, [2-chloro-4-[[3-[3-(trifluoromethyl)-1H-pyrazol-4-yl]imidazo[1,2-a]pyrazin-8-yl]amino]phenyl]-[4-[rac-(3R,5R)-5-hydroxypiperidine-3-carbonyl]piperazin-1-yl]methanone]",241 nM
3,"O=C(NC1CCC(NC(=O)[C@H]2C[C@H](O)CN2)C1)c1ccc(Nc2nccn3c(-c4c[nH]nc4C(F)(F)F)cnc23)cc1Cl (mixture of isomers) [Example 373, rac-(2R,4S)-N-[3-[[2-chloro-4-[[3-[3-(trifluoromethyl)-1H-pyrazol-4-yl]imidazo[1,2-a]pyrazin-8-yl]amino]benzoyl]amino]cyclopentyl]-4-hydroxypyrrolidine-2-carboxamide]",1110 nM
4,"O=C(NC1CCCN(C(=O)[C@H]2C[C@H](O)CN2)C1)c1ccc(Nc2nccn3c(-c4c[nH]nc4C(F)(F)F)cnc23)cc1Cl (mixture of isomers) [Example 387, 2-chloro-N-[1-[rac-(2R,4S)-4-hydroxypyrrolidine-2-carbonyl]piperidine-3-yl]-4-[[3-[3-(trifluoromethyl)-1H-pyrazol-4-yl]imidazo[1,2-a]pyrazin-8-yl]amino]benzamide]",4840 nM
5,"N[C@@H]1CC[C@@H](NC(=O)c2ccc(Nc3nccn4c(-c5c[nH]nc5C(F)(F)F)cnc34)cc2Cl)C1 (racemic) [Example 407, 2-chloro-N-[rac-(1R,3R)-3-aminocyclopentyl]-4-[[3-[3-(trifluoromethyl)-1H-pyrazol-4-yl]imidazo[1,2-a]pyrazin-8-yl]amino]benzamide]",2960 nM
6,"Cc1cc(Nc2nccn3c(-c4c[nH]nc4C(F)(F)F)cnc23)ccc1C(=O)N1CCN(C(=O)[C@H]2CNC[C@H](O)C2)CC1 (racemic) [Example 439, [2-methyl-4-[[3-[3-(trifluoromethyl)-1H-pyrazol-4-yl]imidazo[1,2-a]pyrazin-8-yl]amino]phenyl]-[4-[rac-(3R,5R)-5-hydroxypiperidine-3-carbonyl]piperazin-1-yl]methanone hydrochloride]",834 nM
7,"Cc1cc(Nc2nccn3c(-c4c[nH]nc4C(F)(F)F)cnc23)ccc1C(=O)N1CCN(C(=O)[C@@H]2CNCC[C@H]2O)CC1 (racemic) [Example 467, [2-methyl-4-[[3-[3-(trifluoromethyl)-1H-pyrazol-4-yl]imidazo[1,2-a]pyrazin-8-yl]amino]phenyl]-[4-[rac-(3R,4R)-4-hydroxypiperidine-3-carbonyl]piperazin-1-yl]methanone hydrochloride]",1420 nM
8,"Cc1cc(Nc2nccn3c(-c4c[nH]nc4C(F)(F)F)cnc23)ccc1C(=O)N1CCN(C(=O)[C@@H]2CNCC[C@@H]2O)CC1 (racemic) [Example 468, [2-methyl-4-[[3-[3-(trifluoromethyl)-1H-pyrazol-4-yl]imidazo[1,2-a]pyrazin-8-yl]amino]phenyl]-[4-[rac-(3R,4S)-4-hydroxypiperidine-3-carbonyl]piperazin-1-yl]methanone hydrochloride]",1430 nM

# Same assay, conditions: strain ATCC 17961, OD600 growth over 16 h, read-out: A. baumannii ATCC 17961 IC90
row,Molecule,IC90
1,"4-[2-chloro-4- [[3-[1-(2- cyanoethyl)-3- pyrazol-4- yl]imidazo[1,2- a]pyrazin-8- yl]amino]benzoyl]- N-[(3R)- pyrrolidin-3- yl]piperazine-1- carboxamide formate [Example 261]",521 nM
2,"4-[[3-[1-(2-cyanomethyl)-3-(trifluoromethyl)pyrazol-4-yl]imidazo[1,2-a]pyrazin-8-yl]amino]-2-ethyl-N-methylbenzamide [Example 337]",359 nM
